Reference: US10863748B2, “Antibacterial products and processes for preparing antibacterial products from maple syrup” (priority 2016, dated 2020)

Test system: three bacteria and one yeast
Assay: Antimicrobial effect of melamine per se
Format: cell-based

Structure (SMILES): Nc1nc(N)nc(N)n1 [melamine, 2,4,6-triamino-1,3,5-triazine]
- antimicrobial effect: did not exhibit any antimicrobial effect
